Here are results for 16 compounds from patent publication US20250281433A1, “NOVEL DERIVATIVE COMPOUND HAVING BIPHENYL GROUP INTRODUCED INTO AMINO-ALKANOIC ACID AND ANTI-INFLAMMATORY COMPOSITION COMPRISING SAME” (AMTIXBIO CO., LTD., priority 2020, published 2025).

Experiment [1] deals with IL-6 production in RAW264.7 cells. Put plainly: LPS-induced IL-6 production in RAW264.7 cells (ELISA). It is filed as cell-based, mouse. The following applies: for Relative amount of IL-6 compared to LPS induction (%): Table 3, compounds at 8 μg/mL (FIG. 1), LPS alone = 100%. The procedure: The inhibitory effect on induced IL-6 cytokine production was analyzed. RAW264.7 cells (obtained from the Korean Cell Line Bank) were seeded at a density of 5×10^5 cells/well in a 12-well plate and stabilized in a CO2 incubator at 37° C. with 5% carbon dioxide and saturated humidity. After 24 hours of incubation, the compounds of the present invention were prepared in DMEM at concentrations of 0 μg/mL or 8 μg/mL and pre-treated for 30 minutes. Next, lipopolysaccharide (LPS, Sigma-Aldrich, Cat No. L2887) was treated to a concentration of 1 μg/mL to induce an inflammatory response for 24 hours. Subsequently, mouse IL-6 ELISA kit (Labiskoma, Cat No. K0331230P) and mouse TNF-α ELISA kit (Labiskoma, Cat No. K0331186P) were used according to the manufacturer's instructions, and absorbance was measured. FK506 (FK-506 monohydrate, manufacturer: MilliporeSigma, product number: F4679, U.S.A) was used as a control substance.
After inducing inflammation as described in (1) and (2) above, the supernatant was collected, and the quantification of IL-6 in the supernatant was performed using the IL-6 ELISA kit (Mouse IL-6 ELISA Kit, pink-ONE, manufactured by Komabiotech, Product No. K0331230P) according to the manufacturer's instructions. Specifically, the amount of IL-6 in the supernatant was quantified according to the ELISA kit protocol, and the absorbance was measured at OD 450 nm using a microplate reader (Multiskan Sky, manufactured by Thermo Fisher Scientific). […] In Table 1 to Table 3, FIG. 1, and FIG. 2, the relative values of IL-6 generated after pretreatment with the compounds of the present invention were expressed as a percentage relative to the IL-6 production (100%) induced by LPS, TNF-α, or IFN-β treatment.

The test system of experiment [2] is psoriasis symptoms induced by Aldara cream in BALB/c mice. Put plainly: Aldara cream-induced mouse psoriasis model: evaluation of scratching. The class given is in vivo. As to conditions: 8th day; topical; Compound 51 1%, Betamethasone 0.05%; versus Veh. Here is the method: (§1) After dissolving the test substance (Compound 51 of the present invention) using DMSO (Dimethyl sulfoxide, Sigma, Cat No. 472301), an appropriate concentration was prepared with PBS (HyClone, Cat No. SH30028.02). The transdermal test substance was prepared by dissolving the test substance in 100% ethanol (Medchem, Cat No. HY-13571). Betamethasone dipropionate (Sigma, Cat No. D1756, Lot No. BCBW7684), a positive control, was dissolved in DMSO, and PEG400 (Sigma, Cat. No. 06855) and 30% ethanol (Daejung, Cat. No. 4023-4100) were added to the mixture obtained above. The same vehicle was used for the negative control in the same way as the positive control specimen preparation.
(§2) BALB/c mice (purchased through JA BIO, 27 males, 8 weeks old) were acclimatized for one week. After the mice were anesthetized with isoflurane 3 days before the application of Aldara cream, the hair on the back (3×3 cm) was removed using a clipper. The remaining hair was completely removed by leaving the hair removal cream for 1 minute. The mice were left for 72 hours to heal the wounds. To induce psoriasis, Aldera Cream (5% Imiquimod, Dong-A ST) 62.5 mg was applied at the same time point (AM 10:00) once/day 7 times, and 150 μl of test substance or positive control was applied from the 4th day at the same time point (PM 14:00) for 4 days. […]

Experiment [3] concerns psoriasis-related cytokine genes IL-17A, IL-17F, IL-23A (p19), IL-12A (p35), IL-12B (p40), IL-1β. Put plainly: Aldara cream-induced mouse psoriasis model: qRT-PCR of dorsal skin. It is filed as in vivo. As to conditions: dorsal skin RNA, normalized to 18s rRNA; topical; Compound 51 1%, Betamethasone 0.05%; versus Veh. Here is the method:
as §1, §2

Experiment [4] has as its system psoriasis symptoms induced by Aldara cream in BALB/c mice. Put plainly: Aldara cream-induced mouse psoriasis model: skin lesions / PASI score. The class given is in vivo. As to conditions: topical 150 μl for 4 days from 4th day, Compound 51 1%, Betamethasone 0.05%, versus Veh. Here is the method: as §1
BALB/c mice (purchased through JA BIO, 27 males, 8 weeks old) were acclimatized for one week. After the mice were anesthetized with isoflurane 3 days before the application of Aldara cream, the hair on the back (3×3 cm) was removed using a clipper. The remaining hair was completely removed by leaving the hair removal cream for 1 minute. The mice were left for 72 hours to heal the wounds. To induce psoriasis, Aldera Cream (5% Imiquimod, Dong-A ST) 62.5 mg was applied at the same time point (AM 10:00) once/day 7 times, and 150 μl of test substance or positive control was applied from the 4th day at the same time point (PM 14:00) for 4 days. The composition of each test group was as follows. a) Con: Normal+excipient application group: 8 animals; b) Veh: Aldara cream+excipient application group: 8 animals; c) Beta: Aldara+Betamethasone 0.05% applied group: 8 animals; and d) Compound 51 1%: Aldara+Compound 51 1% application group: 3 animals. The autopsy proceeded in a non-fasting state, and the dorsal skin was removed from each mouse, rapidly frozen in liquid nitrogen, and stored at −80° C. before for the subsequent experiments.
After taking pictures on the 0th, 4th, and 8th days to measure the skin index values, they were visually observed and recorded to measure the degree of skin lesions on the dorsal area. The condition of psoriasis skin lesions in each group was scored according to the evaluation index (erythema, skin thickness, dead skin cells) as None (0), Weak (1), Moderate (2), Severe (3), Very Severe (4) and set the score, and by summing up the scores of the three items, an evaluation score between a minimum of 0 and a maximum of 12 was calculated. […] After taking pictures in all groups on the 0th, 4th and 8th days, the evaluation indexes (erythema, skin thickness, and dead skin cells) of the psoriasis skin lesions in each group were graphed.

As to `CCCC(N)C(=O)Nc1ccc(-c2ccc(OC(F)(F)F)cc2)cc1.Cl` (racemic) [Compound 32, (R)/(S)-2-amino-N-(4′-(trifluoromethoxy)-[1,1′-biphenyl]-4-yl)pentanamide hydrochloride], in experiment [1] (LPS 1 μg/mL 24 h), the “Relative amount of IL-6 compared to LPS induction (%)” value (“Relative amount … (%)” for short) turned out to be 16%.

As to `CCCC(C(=O)Nc1ccc(-c2ccc(Cl)c(Cl)c2)cc1)N(C)C` (racemic) [Compound 36, (R)/(S)—N-(3′,4′-dichloro-[1,1′-biphenyl]-4-yl)-2-(dimethylamino)pentanamide], the “Relative amount … (%)” value in experiment [1] (LPS 1 μg/mL 24 h) is on record as 9%.

Turning to `CCCC(N)C(=O)NCc1ccc(-c2ccc(Cl)c(Cl)c2)cc1.Cl` (racemic) [Compound 45, (R)/(S)-2-amino-N-((3′,4′-dichloro-[1,1′-biphenyl]-4-yl)methyl)pentanamide hydrochloride], in experiment [1] (LPS 1 μg/mL 24 h), the “Relative amount … (%)” value amounted to 3%.

Turning to `CCCC(N)C(=O)NCc1ccc(-c2ccc(C(F)(F)F)cc2)cc1.Cl` (racemic) [Compound 47, (R)/(S)-2-amino-N-((4′-(trifluoromethyl)-[1,1′-biphenyl]-4-yl)methyl)pentanamide hydrochloride], in experiment [1] (LPS 1 μg/mL 24 h), the “Relative amount … (%)” value amounted to 12%.

For `CCCCC(N)C(=O)NCc1ccc(-c2ccc(C(F)(F)F)cc2)cc1.Cl` (racemic) [Compound 48, (R)/(S)-2-amino-N-((4′-(trifluoromethyl)-[1,1′-biphenyl]-4-yl)methyl)hexanamide hydrochloride], the “Relative amount … (%)” value in experiment [1] (LPS 1 μg/mL 24 h) turned out to be 67%.

With `CCCC(N)C(=O)NCc1ccc(-c2ccc(OC(F)(F)F)cc2)cc1.Cl` (racemic) [Compound 49, (R)/(S)-2-amino-N-((4′-(trifluoromethoxy)-[1,1′-biphenyl]-4-yl)methyl)pentanamide hydrochloride], the “Relative amount … (%)” value in experiment [1] (LPS 1 μg/mL 24 h) came to 50%.

For the compound `CCCCC(N)C(=O)NCc1ccc(-c2ccc(OC(F)(F)F)cc2)cc1.Cl` (racemic) [Compound 50, (R)/(S)-2-amino-N-((4′-(trifluoromethoxy)-[1,1′-biphenyl]-4-yl)methyl)hexanamide hydrochloride], the “Relative amount … (%)” value in experiment [1] (LPS 1 μg/mL 24 h) amounted to 68%.

On to `CCCC(NC)C(=O)NCc1ccc(-c2ccc(C(F)(F)F)cc2)cc1.Cl` (racemic) [Compound 52, (R)/(S)-2-(methylamino)-N-((4′-(trifluoromethyl)-[1,1′-biphenyl]-4-yl)methyl)pentanamide hydrochloride], for which, in experiment [1] (LPS 1 μg/mL 24 h), the “Relative amount … (%)” value is 13%.

Take `CCCC(C(=O)NCc1ccc(-c2ccc(Cl)c(Cl)c2)cc1)N(C)C` (racemic) [Compound 53, (R)/(S)—N-((3′,4′-dichloro-[1,1′-biphenyl]-4-yl)methyl)-2-(dimethylamino)pentanamide]: the “Relative amount … (%)” value in experiment [1] (LPS 1 μg/mL 24 h) stood at 5%.

Consider `CCC(N)C(=O)NCCc1ccc(-c2ccc(C(F)(F)F)cc2)cc1.Cl` (racemic) [Compound 76, (R)/(S)-2-amino-N-(2-(4′-(trifluoromethyl)-[1,1′-biphenyl]-4-yl)ethyl)butanamide hydrochloride], for which the “Relative amount … (%)” value in experiment [1] (LPS 1 μg/mL 24 h) was found to be 9.58%.

With `CCCC(N)C(=O)NCCc1ccc(-c2ccc(OC(F)(F)F)cc2)cc1.Cl` (racemic) [Compound 80, (R)/(S)-2-amino-N-(2-(4′-(trifluoromethoxy)-[1,1′-biphenyl]-4-yl)ethyl)pentanamide hydrochloride], the “Relative amount … (%)” value in experiment [1] (LPS 1 μg/mL 24 h) worked out at 6%.

Take `CCCC(N)C(=O)NCCc1ccc(-c2ccc(F)c(F)c2)cc1.Cl` (racemic) [Compound 82, (R)/(S)-2-amino-N-(2-(3′,4′-difluoro-[1,1′-biphenyl]-4-yl)ethyl)pentanamide hydrochloride]: the “Relative amount … (%)” value in experiment [1] (LPS 1 μg/mL 24 h) turned out to be 3%.

On to `CCC(NC)C(=O)NCCc1ccc(-c2ccc(Cl)c(Cl)c2)cc1.Cl` (racemic) [Compound 83, (R)/(S)—N-(2-(3′,4′-dichloro-[1,1′-biphenyl]-4-yl)ethyl)-2-(methylamino)butanamide hydrochloride], for which, in experiment [1] (LPS 1 μg/mL 24 h), the “Relative amount … (%)” value came to 9%.

Regarding `CCCC(NC)C(=O)NCCc1ccc(-c2ccc(C(F)(F)F)cc2)cc1.Cl` (racemic) [Compound 87, (R)/(S)-2-(methylamino)-N-(2-(4′-(trifluoromethyl)-[1,1′-biphenyl]-4-yl)ethyl)pentanamide hydrochloride], the “Relative amount … (%)” value in experiment [1] (LPS 1 μg/mL 24 h) is listed as 24%.

With `CCC(=O)OCC(=O)[C@@]1(OC(=O)CC)[C@@H](C)C[C@H]2[C@@H]3CCC4=CC(=O)C=C[C@]4(C)[C@@]3(F)[C@@H](O)C[C@@]21C` [Beta, Betamethasone dipropionate, reference compound], the “pruritus (scratching counts, 30 minutes)” value in experiment [2] is given as “significant decrease”. Also, the “psoriasis-related cytokine genes (IL-17A, IL-17F, IL-23A (p19), IL-12A (p35), IL-12B (p40), IL-1β) expression” value in experiment [3] was “significantly reduced”. For the same compound, the “skin lesions (pictures, visual)” value in experiment [4] (8th day) was “visually improved”. Moreover, the “PASI Score” value in experiment [4] (p<0.001) is reported as “significantly decreased”.

Regarding `C=CC[C@@H]1/C=C(\C)C[C@H](C)C[C@H](OC)[C@H]2O[C@@](O)(C(=O)C(=O)N3CCCC[C@H]3C(=O)O[C@H](/C(C)=C/[C@@H]3CC[C@@H](O)[C@H](OC)C3)[C@H](C)[C@@H](O)CC1=O)[C@H](C)C[C@@H]2OC` [FK506, FK-506 monohydrate, reference compound], in experiment [1] (Table 1, LPS 1 μg/mL 24 h, compound 77 at 8 μg/ml, FK506 concentration not given), the “IL-6” value is 656.86 pg/mL. In addition, the “IL-6 (%)” value in experiment [1] (Table 1, relative to IL-6 production induced by LPS (100%), compound 77 at 8 μg/ml, FK506 concentration not given) was 45.31%.
